Ends that are not written are not given here.
Legend:
lymphosarcoma cells = settings: mouse, in vivo; cited from earlier work
MCMV = MCMV viral load in TLR-deficient mice (plaque assay); type: in vivo, C57BL6, TLR4-/-, TLR9-/- and MyD88-/- mice; settings: 200 μg/kg for a week
Description: Viral load (FIG. 4a) and cytokine production (FIG. 4b) in C57BL6, TLR4−/−, TLR9−/− and MyD88−/− mice infected with 5×10^5 PFU of MCMV and treated with 200 μg/kg Tα1 for a week. Virus titers, expressed as log 10, were quantified on MEF cells by standard plaque assay on infected tissues removed a week after infection and treatment. Cytokine (pg/ml) levels in culture supernatants of spleen cells were determined by ELISA assay. Bars indicate the standard errors. *P<0.05, Tα1-treated vs untreated mice. Results are representative of 3 independent experiments. Mice. Wild-type (WT) inbred C57BL6 and BALB/c mice, 8 to 12 weeks old, were purchased from Charles River Breeding Laboratories (Calco, Italy). Pairs of homozygous TLR9-(TLR9−/−), TLR4-(TLR4−/−), and MyD88-(MyD88−/−)-deficient mice (on the C57BL6 background), were bred under specific pathogen-free conditions at the breeding facilities of the University of Perugia, Perugia, Italy. Experiments were performed following protocols approved by the institutional animal committee and in accordance with European Economic Community Council Directive as well as institutional animal care and use guidelines. Plaque assay. Plaque assay was determined on cells grown to subconfluence and incubated with serially diluted virus samples for 2 h at 37° C. (10). All organs from uninfected animals were negative viruses. Virus titers are expressed as log 10 (mean±standard errors, SE).

CD11b+DC or pDC = assay: Cytokine production by MCMV-pulsed DC subsets (ELISA); type: cell-based, BALB/c mice; settings: MCMV-infected
From the text: Arrow indicates an inducible band. Lane 1, uninfected cells; lane 2, MCMV-infected; lane 3, Thymosin alpha 1 treated; lane 4, MCMV+Thymosin alpha 1 treated. (FIG. 3b) Cytokine production (pg/ml) by DC subsets treated as above. Bars indicate the standard errors. *P<0.05, cytokine production in MCMV-infected DC vs uninfected DC. **P<0.05, Thymosin alpha 1-treated vs untreated DC. (FIG. 3c) Cytokine production in mice during MCMV infection. Cytokine levels (pg/ml) in culture supernatants of spleen cells from mice with MCMV infection and treated for a week with Thymosin alpha 1 or GCV. *P<0.05, treated vs untreated mice. ND, not done.
DC subset generation. DC were obtained by culturing 10^6/ml BALB/c bone marrow cells in Iscove's modified medium, containing 10% filtered bovine serum, 50 μM 2-mercaptoethanol, sodium pyruvate (1 mM), 2 mM L-glutamine, HEPES (10 mM), and 50 μg/ml gentamycin in the presence of 150 U/ml mouse rGM-CSF (Sigma) and 75 U/ml rIL-4 (R&D Systems) for 7 days to obtain CD11b+DC or 200 ng/ml FLT3-L (Immunex Corporation, Seattle, Wash.) for 9 days to obtain pDC. Final maturation was accomplished by the addition of 1 μg/ml LPS or 2 μg/ml cytosine phosphorothioate-guanine oligodeoxynucleotide (CpG-B ODN 1668) (Coley Pharmaceutical Group, Wellesley, Mass.) for additional 24 h to CD11b+DC or pDC, respectively (Blood 2003; 102: 3807-344; 3814) CD11b+DC were discriminated on CD11chigh expression and were distinctly composed of CD8a+DC and CD11b+DC. pDC were defined as CD11clow, Ly6C+, CD8a+/− cells. Photographs were taken using a high Resolution Microscopy Color Camera AxioCam, using the AxioVision Software Rel. […]
Quantification of cytokines by ELISA and ELISPOT assays. The levels of cytokines in the culture supernatants of mitogen-stimulated spleen cells (48 h stimulation with 10 μg/ml ConA) or MCMV-pulsed DC (24 h) were determined by ELISA (R&D Systems and PBL, Biomedical Lab, Milan, Italy). […] Results are expressed as the mean number of cytokine-producing cells (±SE) per 10^5 cells, calculated using replicates of serial 2-fold dilutions of cells.

Ac-Ser-Asp-Ala-Ala-Val-Asp-Thr-Ser-Ser-Glu -Ile-Thr-Thr-Lys-Asp-Leu-Lys-Glu-Lys-Lys-Glu-Val-Glu-Glu-Ala-Glu-Asn-O (Ac-SDAAVDTSSEITTKDLKEKKEVEEAEN) [Thymosin alpha 1, acidic peptide present in thymus extract with immunoregulatory properties]
local sarcoma growth, liver and lung metastases of lymphosarcoma cells (lymphosarcoma cells): significantly reduced
antiviral effect (viral load) (MCMV; C57BL6 mice): effective
antiviral effect (viral load) (MCMV; MyD88-/- mice): completely ineffective
antiviral effect (viral load) (MCMV; TLR4-/- mice): effective
antiviral effect (viral load) (MCMV; TLR9-/- mice): completely ineffective
production of IFN-a (CD11b+DC or pDC; CD11b+DC): slightly promoted
production of IFN-a (CD11b+DC or pDC; pDC pre-treated): greatly increased
production of IL-12p70 (CD11b+DC or pDC; pDC pre-treated): not affecting
